Source: PMC6076925, “Identification of Digestive Enzyme Inhibitors from Ludwigia octovalvis (Jacq.) P.H.Raven” (Evidence-based Complementary and Alternative Medicine : eCAM, 2018)

Experiments:
α–glucosidases [1] = assay: α–glucosidase inhibition assay (crude intestinal enzyme, corn starch substrate); assay type: biochemical, Wistar rats; details: for IC50: pure compounds, intestinal rat enzyme, starch as substrate; for Inhibition percentage α–glucosidases: mean ± standard deviation
Description: The α–glucosidase assay was previously reported. In brief, corn starch (4 mg/mL) was digested by crude enzyme at 37°C during 10 minutes in a phosphate buffer pH 7 solution at a sample concentration of 0.6 mg/mL (dissolved in DMSO and water). Subsequently, released glucose was quantified by a glucose oxidase-based clinical reagent with the GOD–POD Trinder kit (Spinreact, Girona, Spain) following manufacturer's directions. All tests were performed in quadruplicate. Crude enzyme was obtained directly from healthy Wistar rats (12 h fasting). The small intestine was flushed several times with ice-cold isotonic buffer pH 7 and after the scraping of the mucosa, it was homogenized and stored at -20°C. Animal care and management were carried out under the guidelines of Mexican Official Standard NOM–062–ZOO–1999.
(§1) The logarithm of the concentration was plotted on the x-axis and the percentage of enzymatic inhibitory activity on the y-axis to obtain a semilogarithmic graphic.

α–glucosidases [2] = assay: Type of inhibition and Ki on α–glucosidases by Lineweaver–Burk plots (maltodextrin substrate); assay type: biochemical, Wistar rats; details: for Type of enzymatic inhibition of α–glucosidases: Lineweaver–Burk plots
Description: (§2) The type of inhibition was determined quantifying the activity with and without inhibitor at different substrate concentrations (5–0.35 mg/mL for α–glucosidases and 0.05–0.2 μg/mL for pancreatic lipase) and comparing Lineweaver–Burk plots (inverse substrate concentration [S] and inverse reaction velocity V). In the case of the determination of α–glucosidase type of inhibition, the substrate was changed from corn starch to maltodextrin (MD100, Luzhou Bio–Chem Technology Co., Shandong, China), in order to have greater uniformity in the reaction.
Michaelis–Menten constant (Km) and apparent Km (Km^app) were obtained analysing the Lineweaver–Burk plots. These values allowed to obtain the inhibition constant (Ki) for competitive inhibitors using (2), where [I] represents inhibitor concentration.(2) Km^app=Km1+I/Ki

maltase = target: maltase; parameters: method as in doi:10.1016/j.foodchem.2010.03.075; details: rat; read-out: IC50 inhibition of maltase; cited from earlier work
sucrase = target: sucrase; parameters: method as in doi:10.1016/j.foodchem.2010.03.075; details: rat; read-out: IC50 inhibition of sucrase; cited from earlier work
[3] = target: T1, lipase from porcine pancreas (Sus scrofa, UniProt P00591); assay: Pancreatic lipase inhibition assay (DMPTB/DTNB); assay type: biochemical; details: for inhibition at 250 µg/mL: sample at 0.25 mg/mL
T1 construct: lipase from porcine pancreas (PPL type II, 100–500 units/mg, L3126); purchased Sigma–Aldrich L3126; host or cells: porcine pancreas
T1 sequence (P00591 1-450): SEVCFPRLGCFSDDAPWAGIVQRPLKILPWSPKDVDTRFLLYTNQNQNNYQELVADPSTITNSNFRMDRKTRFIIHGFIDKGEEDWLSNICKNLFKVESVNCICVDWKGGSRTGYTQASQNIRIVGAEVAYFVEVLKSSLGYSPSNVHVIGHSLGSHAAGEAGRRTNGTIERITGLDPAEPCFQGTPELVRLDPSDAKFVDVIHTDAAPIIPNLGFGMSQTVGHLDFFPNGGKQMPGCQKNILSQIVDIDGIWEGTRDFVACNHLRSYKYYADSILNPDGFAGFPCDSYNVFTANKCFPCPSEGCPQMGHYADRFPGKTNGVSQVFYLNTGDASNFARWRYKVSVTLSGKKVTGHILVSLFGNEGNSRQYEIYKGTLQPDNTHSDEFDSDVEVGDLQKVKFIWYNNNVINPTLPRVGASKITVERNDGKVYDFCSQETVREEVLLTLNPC
Description: Pancreatic lipase inhibition assay was previously reported. Briefly, the absorbance of a mixture of DTNB 0.2 mM, DMPTB 0.8 mM, NaCl 0.1M, CaCl2 2 mM, Triton X–100 0.04%, porcine lipase 65 μg/mL, and the sample (dissolved in DMSO and water) at 0.25 mg/mL was followed with a Thermo Scientific Genesys 20 Visible Spectrophotometer (Fisher Scientific, 4001000, Hampton, NH) at 412 nm every 20 s for five minutes and plotted (Excel, Microsoft) to obtain initial velocity value. The lipase was prepared as a stock at 10 mg/mL in Tris–HCl 25 mM pH 6.2 with 0.1 M NaCl, SDS 2 mM, and 250 μL/mL of glycerol. A control assay without substrate was carried out to discard nonspecific reactions with DTMB. All reactions were tested by triplicate.
as §1

pancreatic lipase = target: T2, pancreatic lipase (Sus scrofa, UniProt P00591); assay: Type of inhibition on pancreatic lipase by Lineweaver–Burk plots; assay type: biochemical, porcine
T2 construct: lipase from porcine pancreas (PPL type II, 100–500 units/mg, L3126); purchased Sigma–Aldrich L3126; host or cells: porcine pancreas
T2 sequence (P00591 1-450): T1 sequence (P00591 1-450)
Description: as §2

[4] = mean ± standard deviation, read-out: Inhibition percentage Pancreatic lipase

SMILES	IC50 (α–glucosidases [1]) [µM]	Inhibition percentage α–glucosidases (α–glucosidases [1]; sample at 0.6 mg/mL) [%]	Type of enzymatic inhibition of α–glucosidases (α–glucosidases [2])	Ki (α–glucosidases [2]; inhibitor at 625 μM) [µM]	Ki (α–glucosidases [2]; inhibitor at 1250 μM) [µM]	inhibition at 250 µg/mL [3, 4] [%]	IC50 (maltase) [µM]	IC50 (sucrase) [µM]	also measured
O=c1cc(-c2ccc(O)c(O)c2)oc2cc(O)cc(O)c12 [Luteolin, reference compound]	1260	66.3 ± 5.6	–	–	–	–	–	–	IC50 (α–glucosidases [1]; listed as luteolin): ~1260 µM
C[C@H]1O[C@H](O[C@H]2[C@H](O)[C@@H](O)[C@@H](O[C@H]3[C@H](O)[C@@H](O)C(O)O[C@@H]3CO)O[C@@H]2CO)[C@H](O)[C@@H](O)[C@@H]1N[C@H]1C=C(CO)[C@@H](O)[C@H](O)[C@H]1O (some centres unmarked) [Acarbose, acarbose, reference compound]	–	–	–	–	–	–	–	–	Inhibition percentage α–glucosidases (α–glucosidases [1]; evaluated at 5.8 µM): 50.0 ± 1.6∗ %
O=c1cc(-c2ccc(O)c(O)c2)oc2cc(O)c([C@@H]3O[C@H](CO)[C@@H](O)[C@H](O)[C@H]3O)c(O)c12 [C4F4–P (isoorientin), isoorientin]	–	–	–	–	–	55.1 ± 3.1	–	–	IC50 ([3]; pure compound): 201 µM; Type of enzymatic inhibition of pancreatic lipase (pancreatic lipase): uncompetitive enzymatic inhibition
CCCCCCCCCCC[C@@H](C[C@@H]1OC(=O)[C@H]1CCCCCC)OC(=O)[C@H](CC(C)C)NC=O [Orlistat, orlistat, reference compound]	–	–	–	–	–	–	–	–	inhibition at 1.6 µM ([3]; evaluated at 1.6 µM, mean ± standard deviation, read-out: Inhibition percentage Pancreatic lipase): 50 ± 2.6%

Continued, in another order:

IC50 (α–glucosidases [1]) [µM]	Inhibition percentage α–glucosidases (α–glucosidases [1]; sample at 0.6 mg/mL) [%]	Type of enzymatic inhibition of α–glucosidases (α–glucosidases [2])	Ki (α–glucosidases [2]; inhibitor at 625 μM) [µM]	Ki (α–glucosidases [2]; inhibitor at 1250 μM) [µM]	inhibition at 250 µg/mL [3, 4] [%]	SMILES	IC50 (maltase) [µM]	IC50 (sucrase) [µM]	also measured
969	98.9 ± 0.6	competitive enzymatic inhibition	436	208	–	O=C(O)c1cc(O)c(O)c(O)c1 [C2F1 (gallic acid), gallic acid]	390	130	–
832	98.4 ± 2.0	competitive enzymatic inhibition	636	315	23.2 ± 3	CCOC(=O)c1cc(O)c(O)c(O)c1 [C1F1 (ethyl gallate), ethyl gallate]	415	660	–
